Experimental data: US6486098B1, “Herbicidal phenoxypropionic acid N-alkyl-N-2-fluorophenyl amide compounds” (Dongbu Hannong Chemical Co. Ltd., priority 1999, dated 2002)

Legend:
TRZAW (Wheat) = assay: Leaf treatment test, wheat; type: in vivo, Triticum aestivum L.; conditions: 14 days after treatment
Description: (§1) Seeds of rice, wheat, barley, corn, cotton, barnyard grass, common sorgum, large crabgrass and fall panicum were seeded at a pot with a surface area of 600 cm^2. […] 14 days after the treatment, the degree of damage to the plants was rated in % damage in comparison to the development of untreated control.

GLXMA (Soy bean) = assay: Leaf treatment test, soy bean; type: in vivo, Glycine max (L.) MERR; conditions: 14 days after treatment
SORBI (Common sorgum) = assay: Leaf treatment test, common sorgum; type: in vivo, Andropogon sorghum; conditions: 14 days after treatment
Description: as §1

ECHCG (Barnyard grass) = assay: Leaf treatment test, barnyard grass; type: in vivo, Echinochloa crus-galli Beauv. var. caudata Kitagawa; conditions: leaf treatment at three leaves, 14 days after treatment
Description: as §1

ORYSA (Rice) = assay: Leaf treatment test, rice; type: in vivo, Oryza sativa L. cv. Dongjin; conditions: 14 days after treatment
Description: as §1

ZEAMX (Corn) = assay: Leaf treatment test, corn; type: in vivo, Zea mays L.; conditions: 14 days after treatment
Description: as §1

GOSHI (Cotton) = assay: Leaf treatment test, cotton; type: in vivo, Gossypium; conditions: 14 days after treatment
Description: as §1

PANDI (Fall panicum) = assay: Leaf treatment test, fall panicum; type: in vivo, Panicum dichotomiflorum Michx; conditions: 14 days after treatment
Description: as §1

DIGSA (Large crabgrass) = assay: Leaf treatment test, large crabgrass; type: in vivo, Digitaria Sanguinalis (L.) SCOP; conditions: 14 days after treatment
Description: as §1

Row | SMILES | degree of damage to the plants (% damage) (TRZAW (Wheat); treated amount 0.025 kg/ha) [%] | degree of damage to the plants (% damage) (TRZAW (Wheat); treated amount 0.1 kg/ha) [%] | degree of damage to the plants (% damage) (TRZAW (Wheat); treated amount 0.4 kg/ha) [%] | degree of damage to the plants (% damage) (GLXMA (Soy bean); treated amount 0.025 kg/ha) [%] | degree of damage to the plants (% damage) (GLXMA (Soy bean); treated amount 0.1 kg/ha) [%] | degree of damage to the plants (% damage) (GLXMA (Soy bean); treated amount 0.4 kg/ha) [%] | degree of damage to the plants (% damage) (SORBI (Common sorgum); treated amount 0.025 kg/ha) [%] | degree of damage to the plants (% damage) (SORBI (Common sorgum); treated amount 0.1 kg/ha) [%] | degree of damage to the plants (% damage) (SORBI (Common sorgum); treated amount 0.4 kg/ha) [%] | degree of damage to the plants (% damage) (ECHCG (Barnyard grass); treated amount 0.025 kg/ha) [%] | degree of damage to the plants (% damage) (ECHCG (Barnyard grass); treated amount 0.1 kg/ha) [%] | degree of damage to the plants (% damage) (ECHCG (Barnyard grass); treated amount 0.4 kg/ha) [%] | degree of damage to the plants (% damage) (ORYSA (Rice); treated amount 0.025 kg/ha) [%] | degree of damage to the plants (% damage) (ORYSA (Rice); treated amount 0.1 kg/ha) [%] | degree of damage to the plants (% damage) (ORYSA (Rice); treated amount 0.4 kg/ha) [%] | degree of damage to the plants (% damage) (ZEAMX (Corn); treated amount 0.025 kg/ha) [%] | degree of damage to the plants (% damage) (ZEAMX (Corn); treated amount 0.1 kg/ha) [%] | degree of damage to the plants (% damage) (ZEAMX (Corn); treated amount 0.4 kg/ha) [%] | degree of damage to the plants (% damage) (GOSHI (Cotton); treated amount 0.025 kg/ha) [%] | degree of damage to the plants (% damage) (GOSHI (Cotton); treated amount 0.1 kg/ha) [%] | further results
1 | CC(Oc1ccc(Oc2nc3ccc(Cl)cc3o2)cc1)C(=O)N(C)c1ccc(F)cc1F (centres unmarked) [Compound No. 5, 2-[4-(6-Chloro-2-benzoxazoyloxy)-phenoxy]propionic Acid-N-(2,4-difluorophenyl)-N-methyl Amide] | 0 | 0 | 0 | 0 | 0 | 0 | 100 | 100 | 100 | 0 | 100 | 100 | 0 | 0 | 0 | 0 | 30 | 100 | 0 | 0 | degree of damage to the plants (% damage) (GOSHI (Cotton); treated amount 0.4 kg/ha): 0%; degree of damage to the plants (% damage) (PANDI (Fall panicum); treated amount 0.025 kg/ha): 40%; degree of damage to the plants (% damage) (PANDI (Fall panicum); treated amount 0.1 kg/ha): 80%; degree of damage to the plants (% damage) (PANDI (Fall panicum); treated amount 0.4 kg/ha): 100%; degree of damage to the plants (% damage) (DIGSA (Large crabgrass); treated amount 0.025 kg/ha): 100%; degree of damage to the plants (% damage) (DIGSA (Large crabgrass); treated amount 0.1 kg/ha): 100%; degree of damage to the plants (% damage) (DIGSA (Large crabgrass); treated amount 0.4 kg/ha): 100%
2 | CC(Oc1ccc(Oc2nc3ccc(Cl)cc3o2)cc1)C(=O)N(C)c1c(F)ccc(F)c1F (centres unmarked) [Compound No. 6, 2-[4-(6-Chloro-2-benzoxazoyloxy)-phenoxy]propionic Acid-N-methyl-N-(2,3,6-trifluorophenyl)amide] | 0 | 0 | 0 | 0 | 0 | 0 | 100 | 100 | 100 | 95 | 100 | 100 | 0 | 0 | 20 | 30 | 100 | 100 | 0 | 0 | degree of damage to the plants (% damage) (GOSHI (Cotton); treated amount 0.4 kg/ha): 0%; degree of damage to the plants (% damage) (PANDI (Fall panicum); treated amount 0.025 kg/ha): 40%; degree of damage to the plants (% damage) (PANDI (Fall panicum); treated amount 0.1 kg/ha): 100%; degree of damage to the plants (% damage) (PANDI (Fall panicum); treated amount 0.4 kg/ha): 100%; degree of damage to the plants (% damage) (DIGSA (Large crabgrass); treated amount 0.025 kg/ha): 40%; degree of damage to the plants (% damage) (DIGSA (Large crabgrass); treated amount 0.1 kg/ha): 100%; degree of damage to the plants (% damage) (DIGSA (Large crabgrass); treated amount 0.4 kg/ha): 100%
3 | Cc1ccc(F)c(N(C)C(=O)C(C)Oc2ccc(Oc3nc4ccc(Cl)cc4o3)cc2)c1 (centres unmarked) [Compound No. 7] | 0 | 0 | 0 | 0 | 0 | 10 | 10 | 95 | 100 | 20 | 40 | 40 | 0 | 0 | 0 | 0 | 0 | 0 | 0 | 0 | degree of damage to the plants (% damage) (GOSHI (Cotton); treated amount 0.4 kg/ha): 0%; degree of damage to the plants (% damage) (PANDI (Fall panicum); treated amount 0.025 kg/ha): 100%; degree of damage to the plants (% damage) (PANDI (Fall panicum); treated amount 0.1 kg/ha): 100%; degree of damage to the plants (% damage) (PANDI (Fall panicum); treated amount 0.4 kg/ha): 100%; degree of damage to the plants (% damage) (DIGSA (Large crabgrass); treated amount 0.025 kg/ha): 100%; degree of damage to the plants (% damage) (DIGSA (Large crabgrass); treated amount 0.1 kg/ha): 100%; degree of damage to the plants (% damage) (DIGSA (Large crabgrass); treated amount 0.4 kg/ha): 100%
4 | CC(Oc1ccc(Oc2nc3ccc(Cl)cc3o2)cc1)C(=O)N(C)c1ccc(Cl)cc1F (centres unmarked) [Compound No. 8] | 0 | 0 | 0 | 0 | 0 | 0 | 0 | 70 | 100 | 0 | 0 | 70 | 0 | 0 | 0 | 0 | 0 | 0 | 0 | 0 | degree of damage to the plants (% damage) (GOSHI (Cotton); treated amount 0.4 kg/ha): 0%; degree of damage to the plants (% damage) (PANDI (Fall panicum); treated amount 0.025 kg/ha): 0%; degree of damage to the plants (% damage) (PANDI (Fall panicum); treated amount 0.1 kg/ha): 0%; degree of damage to the plants (% damage) (PANDI (Fall panicum); treated amount 0.4 kg/ha): 100%; degree of damage to the plants (% damage) (DIGSA (Large crabgrass); treated amount 0.025 kg/ha): 30%; degree of damage to the plants (% damage) (DIGSA (Large crabgrass); treated amount 0.1 kg/ha): 95%; degree of damage to the plants (% damage) (DIGSA (Large crabgrass); treated amount 0.4 kg/ha): 100%
5 | CC(Oc1ccc(Oc2nc3ccc(Cl)cc3o2)cc1)C(=O)N(C)c1cc(F)ccc1F (centres unmarked) [Compound No. 9] | 0 | 0 | 0 | 0 | 0 | 0 | 90 | 100 | 100 | 70 | 80 | 80 | 0 | 0 | 20 | 0 | 0 | 100 | 0 | 0 | degree of damage to the plants (% damage) (GOSHI (Cotton); treated amount 0.4 kg/ha): 0%; degree of damage to the plants (% damage) (PANDI (Fall panicum); treated amount 0.025 kg/ha): 90%; degree of damage to the plants (% damage) (PANDI (Fall panicum); treated amount 0.1 kg/ha): 100%; degree of damage to the plants (% damage) (PANDI (Fall panicum); treated amount 0.4 kg/ha): 100%; degree of damage to the plants (% damage) (DIGSA (Large crabgrass); treated amount 0.025 kg/ha): 100%; degree of damage to the plants (% damage) (DIGSA (Large crabgrass); treated amount 0.1 kg/ha): 100%; degree of damage to the plants (% damage) (DIGSA (Large crabgrass); treated amount 0.4 kg/ha): 100%
6 | Cc1ccc(N(C)C(=O)C(C)Oc2ccc(Oc3nc4ccc(Cl)cc4o3)cc2)c(F)c1 (centres unmarked) [Compound No. 10] | 0 | 0 | 0 | 0 | 0 | 0 | 30 | 60 | 100 | 0 | 0 | 80 | 0 | 0 | 0 | 0 | 0 | 0 | 0 | 0 | degree of damage to the plants (% damage) (GOSHI (Cotton); treated amount 0.4 kg/ha): 0%; degree of damage to the plants (% damage) (PANDI (Fall panicum); treated amount 0.025 kg/ha): 0%; degree of damage to the plants (% damage) (PANDI (Fall panicum); treated amount 0.1 kg/ha): 0%; degree of damage to the plants (% damage) (PANDI (Fall panicum); treated amount 0.4 kg/ha): 70%; degree of damage to the plants (% damage) (DIGSA (Large crabgrass); treated amount 0.025 kg/ha): 70%; degree of damage to the plants (% damage) (DIGSA (Large crabgrass); treated amount 0.1 kg/ha): 95%; degree of damage to the plants (% damage) (DIGSA (Large crabgrass); treated amount 0.4 kg/ha): 100%
7 | COc1ccc(N(C)C(=O)C(C)Oc2ccc(Oc3nc4ccc(Cl)cc4o3)cc2)c(F)c1 (centres unmarked) [Compound No. 11] | 0 | 0 | 0 | 0 | 0 | 0 | 0 | 20 | 70 | 0 | 0 | 40 | 0 | 0 | 0 | 0 | 0 | 0 | 0 | 0 | degree of damage to the plants (% damage) (GOSHI (Cotton); treated amount 0.4 kg/ha): 0%; degree of damage to the plants (% damage) (PANDI (Fall panicum); treated amount 0.1 kg/ha): 20%; degree of damage to the plants (% damage) (PANDI (Fall panicum); treated amount 0.4 kg/ha): 40%; degree of damage to the plants (% damage) (DIGSA (Large crabgrass); treated amount 0.025 kg/ha): 95%; degree of damage to the plants (% damage) (DIGSA (Large crabgrass); treated amount 0.1 kg/ha): 95%; degree of damage to the plants (% damage) (DIGSA (Large crabgrass); treated amount 0.4 kg/ha): 95%
